Measured values as given in patent US8022064B2, “Phenylpentadienoyl derivatives and their use as PAR 1 antagonists” (Pierre Fabre Medicament, priority 2006, dated 2011).

Each compound was assayed against T1, PAR-1 receptor (Cricetulus griseus, UniProt A0A8C2QJ57) (assay: Calcium release (FLIPR) antagonism of SFLLR-activated PAR-1 in CHO cells). Details: SFLLR agonist, Schild method from EC50 shifts at three concentrations, read-out: pA2 (converted).
T1 construct: Chinese hamster ovarian (CHO) cells constituently express PAR-1 receptor; endogenous in cells; host or cells: CHO cells
T1 sequence (A0A8C2QJ57 22-428): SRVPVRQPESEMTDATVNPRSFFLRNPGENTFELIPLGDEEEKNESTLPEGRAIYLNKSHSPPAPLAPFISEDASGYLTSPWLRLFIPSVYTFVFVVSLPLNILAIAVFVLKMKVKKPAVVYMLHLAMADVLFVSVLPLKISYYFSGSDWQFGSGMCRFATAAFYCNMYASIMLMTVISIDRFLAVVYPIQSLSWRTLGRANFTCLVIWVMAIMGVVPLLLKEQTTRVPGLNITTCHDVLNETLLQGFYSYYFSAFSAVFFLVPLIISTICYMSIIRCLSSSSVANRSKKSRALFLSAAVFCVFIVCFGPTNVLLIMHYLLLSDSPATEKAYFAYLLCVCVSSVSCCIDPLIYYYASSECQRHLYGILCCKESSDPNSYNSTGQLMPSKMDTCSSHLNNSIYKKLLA
Assay type: cell-based, Chinese hamster
Description: In a variety of cell types, activation of PAR-1 receptors by the SFLLR peptide (a selective PAR-1 agonist) triggers an intracellular signal cascade leading to the release of calcium by the endoplasmic reticulum. Chinese hamster ovarian (CHO) cells constituently express PAR-1 receptor. In this cell line, the release of calcium consecutive to receptor activation by SFLLR is measured by a fluorometry technique (fluorometric imaging plate reader, or FLIPR) using a selective probe for calcium (Fluo-3AM). The emission of fluorescence is pharmacologically proportional to the efficiency of the PAR-1 agonist and to its concentration.
Culture medium: Ham's F-12 (Ham, R. G., Proc. Nat. Acad. Sci. 1965, 53: 288) supplemented with 10% fetal calf serum and […].
Fluorescent probe: Fluo-3AM (4 μM; Teflabs, Austin, Tex., USA)
Agonist: SFLLR-NH2 (Serine, phenylalanine, leucine, leucine, arginine).
Methods: CHO cells are inoculated in 96-well plates (60,000 cells per well) in the presence of 200 μl of culture medium for 24 hours. The cells are incubated with the calcium fluorescent probe for 1 hour at 37° C. The cells are then washed 10 minutes before the signal is measured. PAR-1 antagonist is then injected (0.01 μM to 10 μM). The plates are placed in the FLIPR (Molecular Devices, UK) to measure calcium fluorescence at two wavelengths (488 nm and 540 nm: Sullivan et al., Calcium Signaling Protocols 1999, 125-136). Measurements are taken for 5 min before the antagonist is added and for 10 min following its administration. Maximum fluorescence minus baseline fluorescence is measured in 4 different wells. The test is carried out in duplicate. Under these conditions, the derivatives of the present invention were identified as PAR-1 receptor antagonists (antagonism >60% of the calcium signal at 10 μM). The dose-response curves (0.01 μM to 32 μM) obtained with the SFLLR agonist allowed determination of the effective concentration inducing 50% of the maximum effect (EC50). The strengths (pA2) of some of the PAR-1 antagonists described in the present invention were calculated using the method of Arunlakshana and Schild (Brit. J. Pharmacol., 1959, 14: 48-58) from the EC50 shifts observed at three concentrations.

Row | Compound | Kb
1 | O=C(C=CC=Cc1ccccc1[N+](=O)[O-])N1CCN(c2ccccn2)CC1 [Example 21, 5-(2-Nitro-phenyl)-1-(4-pyridin-2-yl-piperazin-1-yl)-penta-2,4-dien-1-one] | 77.6 nM
2 | O=C(/C=C/C=C/c1ccccc1[N+](=O)[O-])N1CCN(c2ccccc2)CC1 [Example 16, 5-(2-Nitro-phenyl)-1-(4-phenyl-piperazin-1-yl)-penta-2,4-dien-1-one] | 58.9 nM
3 | N#Cc1ccccc1/C=C/C=C/C(=O)N1CCN(c2ccccn2)CC1 [Example 1, 2-[5-Oxo-5-(4-pyridin-2-yl-piperazin-1-yl)-penta-1,3-dienyl]-benzonitrile] | 316 nM

Next, values leading:

Row | Kb | Compound
4 | 69.2 nM | O=C(/C=C/C=C/c1ccccc1[N+](=O)[O-])N1CCN(C2CCCC2)CC1 [Example 18, 1-(4-Cyclopentyl-piperazin-1-yl)-5-(2-nitro-phenyl)-penta-2,4-dien-1-one]
5 | 234 nM | N#Cc1ccccc1/C=C/C=C/C(=O)N1CCN(C2CCCC2)CC1 [Example 2, 2-[5-(4-Cyclopentyl-piperazin-1-yl)-5-oxo-penta-1,3-dienyl]-benzonitrile]
6 | 229 nM | O=C(/C=C/C=C/c1ccccc1Cl)N1CCN(C2CCCC2)CC1 [Example 9, 5-(2-Chloro-phenyl)-1-(4-cyclopentyl-piperazin-1-yl)-penta-2,4-dien-1-one]
